What was measured:
[1] = target: T183K point mutant of hemY (Staphylococcus aureus, UniProt Q2FXA5, T183K); test: Activation of hemY, T183K mutant; assay type: biochemical, S. aureus
hemY/PPO [2] = test: Activation of hemY/PPO, Propionibacterium acnes; assay type: biochemical
S. aureus = test: Phototherapy: compound plus light, CFU count; assay type: cell-based
Method: Briefly, S. aureus was incubated with the 882 compound for 30 minutes at 37° C., treated with light for 45 minutes (500 W halogen), and then a colony-forming unit (CFU) count was conducted.

hemY/PPO [3] = target: hemY/PPO (Bacillus subtilis, UniProt P32397); test: Activation of hemY/PPO, Bacillus subtilis; assay type: biochemical
[4] = system: heme biosynthetic pathway; test: Accumulation of heme precursor molecules; assay type: cell-based, S. aureus; conditions: data not shown
Source text: Because ALA is the first committed precursor molecule in the heme biosynthetic pathway, if ALA is contacted with bacteria, the bacteria will generated enhanced amounts of all of the heme precursor molecules downstream of ALA.

wild type S. aureus hemY = target: T1, wild type S. aureus hemY (Staphylococcus aureus, UniProt Q2FXA5); test: Activation of hemY, wild type; assay type: biochemical
T1 sequence (Q2FXA5 1-466): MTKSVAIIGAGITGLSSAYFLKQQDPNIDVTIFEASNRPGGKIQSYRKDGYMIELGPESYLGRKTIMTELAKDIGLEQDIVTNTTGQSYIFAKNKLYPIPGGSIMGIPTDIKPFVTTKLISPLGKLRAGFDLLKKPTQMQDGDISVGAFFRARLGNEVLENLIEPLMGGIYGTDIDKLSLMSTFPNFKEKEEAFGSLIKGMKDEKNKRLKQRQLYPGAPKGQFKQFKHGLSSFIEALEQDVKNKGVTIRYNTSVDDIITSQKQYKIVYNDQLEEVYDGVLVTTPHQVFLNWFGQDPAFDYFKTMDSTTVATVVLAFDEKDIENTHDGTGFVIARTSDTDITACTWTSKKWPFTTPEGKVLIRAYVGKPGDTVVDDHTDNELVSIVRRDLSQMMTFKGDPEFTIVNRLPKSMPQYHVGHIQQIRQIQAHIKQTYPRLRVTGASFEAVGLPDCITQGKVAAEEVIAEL

mammalian PPO = target: T2, mammalian PPO (Homo sapiens, UniProt P50336); test: Activation of mammalian PPO; assay type: biochemical
T2 sequence (P50336 1-477): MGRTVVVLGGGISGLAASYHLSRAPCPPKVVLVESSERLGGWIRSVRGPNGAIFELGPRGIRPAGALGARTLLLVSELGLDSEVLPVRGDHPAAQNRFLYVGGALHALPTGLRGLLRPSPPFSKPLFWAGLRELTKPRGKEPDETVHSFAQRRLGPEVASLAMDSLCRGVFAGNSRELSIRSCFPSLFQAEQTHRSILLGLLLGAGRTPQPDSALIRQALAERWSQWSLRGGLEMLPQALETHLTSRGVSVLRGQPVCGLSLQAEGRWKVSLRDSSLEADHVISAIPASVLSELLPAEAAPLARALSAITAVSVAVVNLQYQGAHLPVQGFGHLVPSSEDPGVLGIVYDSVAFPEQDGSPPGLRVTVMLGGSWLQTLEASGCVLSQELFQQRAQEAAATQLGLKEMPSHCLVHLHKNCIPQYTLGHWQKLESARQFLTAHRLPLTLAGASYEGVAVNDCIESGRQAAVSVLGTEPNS

Chain of hemY/PPO (Bacillus subtilis, UniProt P32397) (P32397 whole entry): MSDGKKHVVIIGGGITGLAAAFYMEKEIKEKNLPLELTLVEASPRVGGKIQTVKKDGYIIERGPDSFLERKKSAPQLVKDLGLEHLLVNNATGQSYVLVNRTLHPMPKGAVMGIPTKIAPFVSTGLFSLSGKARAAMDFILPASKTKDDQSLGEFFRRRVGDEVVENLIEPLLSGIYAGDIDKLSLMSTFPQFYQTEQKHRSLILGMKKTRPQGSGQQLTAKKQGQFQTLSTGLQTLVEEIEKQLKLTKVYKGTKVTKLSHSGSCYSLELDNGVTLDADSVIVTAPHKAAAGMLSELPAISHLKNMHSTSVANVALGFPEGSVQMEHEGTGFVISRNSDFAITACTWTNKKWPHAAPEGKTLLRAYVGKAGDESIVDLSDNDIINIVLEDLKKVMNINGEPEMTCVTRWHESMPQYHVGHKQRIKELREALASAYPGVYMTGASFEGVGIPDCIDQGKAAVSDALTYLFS

In the case of `Oc1c(-c2cc(-c3ccco3)[nH]n2)ccc2ccccc12` [882 compound], the “activation of hemY” value [1] is reported as “not the T183K point mutant of hemY”, the “activation of hemY/PPO” value (hemY/PPO [2]) is reported as “activates” and the “toxicity with light compared to ALA and light” value (S. aureus; 882 50 μM and light vs ALA 10 mg/mL and light) is reported as “more toxic to the bacteria than ALA”. For the same molecule, the photosensitization (S. aureus; 30 min at 37° C., light 45 min (500 W halogen), CFU count) was “leads to staphylococcal photosensitization”, the “activation of hemY/PPO” value (hemY/PPO [3]) was “activates hemY/PPO in Bacillus subtilis” and the PPIX accumulation [4] was “does increase PPIX accumulation”. For the same molecule, the “accumulation of PBG” value [4] was “does not”, the “activation of hemY” value (wild type S. aureus hemY) was “activates wild type S. aureus hemY” and the “activation of PPO” value (mammalian PPO) was “activates”.

Reference: patent US9867879B2 (Vanderbilt University, priority 2015, dated 2018)
